Where two headings read alike, the source gives them in different places.
How the values were obtained:
[1] = tested on: H596 (mitomycin-resistant, lacks DT-Diaphorase) non small cell lung cancer (NSCLC) cell line; test: Cytotoxic activity, H596 cell line; type: cell-based; conditions: Homo sapiens, NCI-H596, read-out: IC50 (nM) H596
Description: (§1) The O-amino phenol derivatives bearing the N—O prodrug linkages and the various N-acyl substituents were assayed for cytotoxic activity alongside the parent drugs CBI-TMI (2) (Boger, D. L.; Yun, W. J. Am. Chem. Soc. 1994, 116, 7996) and mitomycin C (Boger, D. L.; et al. Bioorg. Med. Chem. Lett. 1991, 1, 115; Boger, D. L.; et al. Bioorg. Med. Chem. 1995, 3, 1429) as well as the two control standards 9 and 10 incapable of free phenol release. Three cell lines were examined including a standard L1210 cell line (mouse leukemia) as well as the mitomycin-sensitive (H460, expresses high levels of DT-Diaphorase) and resistant (H596, lacks DT-Diaphorase) non small cell lung cancer (NSCLC) cell lines, with results shown in the Table below.

[2] = Stability in pH 7.0 phosphate buffer; type: physicochemical; conditions: HPLC, UV; monitored 72 hours
[3] = tested on: H460 (mitomycin-sensitive, expresses high levels of DT-Diaphorase) non small cell lung cancer (NSCLC) cell line; test: Cytotoxic activity, H460 cell line; type: cell-based; conditions: for IC50: Homo sapiens, NCI-H460, read-out: IC50 (nM) H460
Description: as §1

[4] = tested on: L1210 cell line (mouse leukemia); test: Cytotoxic activity, L1210 cell line; type: cell-based
Description: as §1

w794 duplex DNA = test: DNA alkylation selectivity and efficiency (thermally-induced strand cleavage); type: biochemical
Description: FIG. 1 illustrates the results of an electrophoresis gel with 8% denaturing PAGE and autoradiography. Thermally-induced strand cleavage of w794 DNA; DNA-agent incubation at 4° C. for 18 hours, removal of unbound agent by EtOH precipitation, and 30 minutes of thermolysis (100° C.) followed by 8% denaturing PAGE and autoradiography. Lane 1, control DNA; lanes 2-5, Sanger G, C, A, and T sequencing reactions; lanes 6-8, 2 (1×10^−4 to 1×10^−6); lanes 9-11, 10 (1×10^−1 to 1×10^−3); lanes 12-14, 4 (1×10^−1 to 1×10^−3), lanes 15-17, 9 (1×10^−1 to 1×10^−3).
The DNA alkylation properties of 4 were examined alongside the parent drug CBI-TMI (2), and the two control standards 9 and 10 (incapable of spirocyclization) within w794 duplex DNA (Boger, D. L.; et al. Tetrahedron 1991, 47, 2661) for which results for an extensive series of duocarmycin analogues have been reported. The sites of DNA alkylation and its efficiency were directly assessed by thermally-induced singly 5′ end-labeled duplex DNA strand cleavage following incubation with the agents ([…], natural enantiomers examined).
The DNA alkylation reactions were performed by treatment of 4.5 μL of singly ^32P 5′-end-labeled double-stranded w794 DNA (Boger, D. L.; et al. Tetrahedron 1991, 47, 2661) in TE buffer (10 mM Tris, 1 mM EDTA, pH 7.6) with 0.5 μL of agent in EtOH (at the specified concentration). […] Unbound agent was removed by EtOH precipitation of DNA (0.5 μL of 3.0 M sodium acetate and 12.5 μL of cold absolute EtOH) and the solutions were stored at −78° C. for 1 hour or longer. The DNA was pelleted by centrifugation at 4° C. (13000 rpm, 25 minutes), dried in a Savant Speed Vac concentrator, and resuspended in 5 μL of TE buffer (pH 7.6). Thermal depurination (3×10 minutes at 100° C.) was performed and then 2.5 μL of formamide dye solution was added to the cooled samples. Thermally denatured samples were assayed by gel electrophoresis [8% denaturing gel with 8 M urea in TBE buffer (89 mM Tris-borate, 2 mM EDTA)] followed by autoradiography of the dried gel using Kodak BIOMAX XAR film and a Picker Spectra™ intensifying screen.

[5] = Chemical stability and reactivity of the N-acyl O-amino phenol derivatives; type: physicochemical
[6] = Stability in human plasma; type: in vitro ADME; conditions: 50 μg/100 μL, 10% DMSO, release of free drug 2
[7] = Mus musculus, L1210, read-out: IC50 (nM) L1210, natural enantiomer series, CBI-TMI derivatives

Row | SMILES | IC50 [1] [nM] | stability in pH 7.0 phosphate buffer [2] | IC50 [3] [nM] | potency compared with 2 ([3]; against H460/H596) | IC50 [4, 7] [nM] | fold less potent than 2 ([4]; against L1210, natural enantiomer) [fold] | DNA alkylation efficiency, reduction relative to CBI-TMI (2) (w794 duplex DNA; w794 DNA, 4° C., 18 hours, natural enantiomers) | DNA alkylation sequence selectivity (w794 duplex DNA; w794 DNA, compared with CBI-TMI (2)) | stability to treatment with BnSH in MeOH with NaHCO3 ([5]; BnSH in MeOH, NaHCO3, 2 hours, 23° C.) | stability to treatment with BnSH ([5]; BnSH in THF (2-72 hours, 23° C.) or MeOH (2-72 hours, 23° C.)) | stability to treatment with BnSH in THF with insoluble NaHCO3 ([5]; BnSH in THF, insoluble NaHCO3, 2 hours, 23° C.) | stability in MeOH ([5]; MeOH) | stability to NaHCO3 or Na2CO3 in MeOH ([5]; NaHCO3 or Na2CO3 in MeOH, 2 hours, 23° C.) [was released slowly] | stability to acidic conditions ([5]; TFA-CH2Cl2, 4 N HCl-EtOAc) | stability on long term storage ([5]; storage) | half-life [6] [h] | DNA alkylation under forcing conditions (w794 duplex DNA; 37° C., 18 hours, data not shown) | observable DNA alkylation (w794 duplex DNA; w794 DNA, 4° C., 18 hours) | IC50 ([4]; read-out: IC50 (nM) L1210, natural enantiomer series, CBI-TMI derivatives) [nM] | DNA alkylation relative to that of 2 (w794 duplex DNA; w794 DNA, natural enantiomers) [%]
1 | COc1cc2cc(C(=O)N3C[C@@H](CCl)c4c3cc(ONC(=O)OC(C)(C)C)c3ccccc43)[nH]c2c(OC)c1OC [Compound 4] | 6 | no significant cleavage of the prodrug was observed | 1 | essentially equipotent | 0.5 | 10 | 1,000-10,000 fold | identical sequence selectivity | cleaved to release 2 | stable | stable | stable | 2 | surprisingly robust to acidic conditions | withstanding even long term storage effectively | 3 |  |  |  | 
2 | COc1cc2cc(C(=O)N3C[C@@H](CCl)c4c3ccc3ccccc43)[nH]c2c(OC)c1OC [Compound 9] | > 100 |  | > 100 |  | > 100 |  |  |  |  |  |  |  |  |  |  |  | no appreciable DNA alkylation | failed to exhibit significant observable DNA alkylation |  | 
3 | COc1cc2cc(C(=O)N3C[C@@H](CCl)c4c3cc(OC)c3ccccc43)[nH]c2c(OC)c1OC [Compound 10] | > 100 |  | > 100 |  | > 100 |  |  |  |  |  |  |  |  |  |  |  |  | failed to exhibit significant observable DNA alkylation | 50 | < 0.01

Reference: patent US8377981B2, “CBI derivatives subject to reductive activation” (The Scripps Research Institute, priority 2007, dated 2013)
